Key:
[1] = biological target: T1, Muscarinic acetylcholine receptor M3 (Cavia porcellus, UniProt Q8VH26); test: Dissociation constant for complex with muscarinic acetylcholine receptor M3 of guinea pig ileum; assay type: tissue-based
[2] = biological target: T1, Muscarinic acetylcholine receptor M3; test: Muscarinic acetylcholine receptor M3 agonistic/antagonistic activity in guinea pig ileum; assay type: functional, tissue-based
[3] = biological target: Muscarinic acetylcholine receptor M3 (Cavia porcellus) (UniProt Q8VH26); test: Maximum contractile response relative to carbachol (E max) in guinea pig ileum as muscarinic acetylcholine receptor M3 agonistic/antagonistic activity; assay type: functional, tissue-based
Muscarinic acetylcholine receptor M3 (Cavia porcellus), sequence (Q8VH26 1-587): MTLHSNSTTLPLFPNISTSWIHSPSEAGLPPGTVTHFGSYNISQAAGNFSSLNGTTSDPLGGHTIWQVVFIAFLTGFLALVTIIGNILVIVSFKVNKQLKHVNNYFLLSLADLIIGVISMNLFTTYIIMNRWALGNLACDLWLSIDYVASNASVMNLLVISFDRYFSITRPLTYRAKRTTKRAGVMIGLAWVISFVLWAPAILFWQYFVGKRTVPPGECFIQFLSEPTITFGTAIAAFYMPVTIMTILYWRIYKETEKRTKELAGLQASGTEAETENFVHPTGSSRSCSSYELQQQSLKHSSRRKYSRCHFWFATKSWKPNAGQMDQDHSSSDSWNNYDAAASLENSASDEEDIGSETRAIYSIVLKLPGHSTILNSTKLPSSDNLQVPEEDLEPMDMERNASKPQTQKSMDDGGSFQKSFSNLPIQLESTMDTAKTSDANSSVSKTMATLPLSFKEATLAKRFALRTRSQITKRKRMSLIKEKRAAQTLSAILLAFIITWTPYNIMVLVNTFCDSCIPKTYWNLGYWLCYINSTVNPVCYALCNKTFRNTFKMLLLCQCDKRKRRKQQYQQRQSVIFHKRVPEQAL

[4] = biological target: Muscarinic acetylcholine receptor M3 (Cavia porcellus) (UniProt Q8VH26); test: Relative efficacies determined with oxotremorine as the reference in guinea pig ileum, as a measure of muscarinic acetylcholine receptor M3 agonistic activity; assay type: functional, tissue-based
[5] = biological target: Muscarinic acetylcholine receptor; test: Displacement of [3H]3-quinuclidinyl benzilate ([3H]-QNB) from muscarinic acetylcholine receptor of rat cerebral cortex; assay type: tissue-based

T1 sequence (Q8VH26 whole entry): as the sequence (Q8VH26 1-587) above

Question: Which results are given for `CC(=O)N(C)C(C)C#CCN1CCCC1` (centres undefined)?
Answer: Kd [1]: 240 nM; EC50 [2]: 190 nM; Emax [3]: 0.83; Efficacy [4]: 0.013

Question: `C[N+](C)(C)CCOC(N)=O` was tested. Which Emax [3] did it give?
Answer: 1

Question: What about the Efficacy [4] of the same compound?
Answer: 5.71

Question: For `O=CN1CCN(CC#CCN2CCCC2)C1=O`, which Kd [1] is on record?
Answer: 20900 nM

Question: What about the EC50 [2] of the same compound?
Answer: 8600 nM

Question: What about the Emax [3] of the same compound?
Answer: 1

Question: And the Efficacy [4]?
Answer: 0.14

Question: And the Ki [5]?
Answer: 26400 nM

Question: For `O=C1NCCN1CC#CCN1CCCC1`, which Kd [1] is on record?
Answer: 30300 nM

Question: And the EC50 [2]?
Answer: 2670 nM

Question: What about the Emax [3] of the same compound?
Answer: 1

Question: What about the Efficacy [4] of the same compound?
Answer: 0.49

Question: And the Ki [5]?
Answer: 6500 nM

Question: What does the source list for `CC(C#CCN1CCCC1)N1CCCC1=O` (centres undefined)?
Answer: Kd [1]: 91 nM; Emax [3]: 0; Efficacy [4]: 0; Ki [5]: 59 nM

Question: Which results are given for `CC(C#CCN1CCCC1)N(C)C(N)=O` (centres undefined)?
Answer: Kd [1]: 710 nM; Emax [3]: 0; Efficacy [4]: 0; Ki [5]: 420 nM

Question: `O=C1CCCN1CC#CCN1CCCC1` [OXOTREMORINE] was tested. Which Kd [1] did it give?
Answer: 1200 nM

Question: What about the EC50 [2] of the same compound?
Answer: 50 nM

Question: And the Emax [3]?
Answer: 1

Question: And the Efficacy [4]?
Answer: 1

Question: What about the Ki [5] of the same compound?
Answer: 230 nM

Question: What does the source list for `CC1CCN(CC#CCN2CCCC2)C1=O` (centres undefined)?
Answer: Kd [1]: 11500 nM; EC50 [2]: 500 nM

Question: What does the source list for `CN1CCN(CC#CCN2CCCC2)C1=O`?
Answer: Kd [1]: 2900 nM; EC50 [2]: 100 nM; Emax [3]: 1; Efficacy [4]: 0.21; Ki [5]: 1600 nM

Question: For `CNC(=O)N(C)CC#CCN1CCCC1`, which Kd [1] is on record?
Answer: 26400 nM

Question: And the EC50 [2]?
Answer: 2160 nM

Question: And the Emax [3]?
Answer: 1

Question: What about the Efficacy [4] of the same compound?
Answer: 0.53

Question: And the Ki [5]?
Answer: 15800 nM

Question: What does the source list for `CC(C#CCN1CCCC1)N1CCNC1=O` (centres undefined)?
Answer: Kd [1]: 480 nM; Emax [3]: 0; Efficacy [4]: 0; Ki [5]: 640 nM

Question: How did the Kd [1] turn out when `CN(CC#CCN1CCCC1)C(N)=O` was run?
Answer: 49000 nM

Question: What about the EC50 [2] of the same compound?
Answer: 44900 nM

Question: What about the Emax [3] of the same compound?
Answer: 0.57

Question: And the Efficacy [4]?
Answer: 0.08

Question: What about the Ki [5] of the same compound?
Answer: 10700 nM

Question: What does the source list for `CNC(=O)N(C)C(C)C#CCN1CCCC1` (centres undefined)?
Answer: Kd [1]: 7500 nM; EC50 [2]: 2110 nM; Emax [3]: 1; Efficacy [4]: 0.18; Ki [5]: 4200 nM

Question: `O=C1CNC(=O)N1CC#CCN1CCCC1` was tested. Which Kd [1] did it give?
Answer: 100000 nM

Question: And the EC50 [2]?
Answer: 46400 nM

Question: What about the Emax [3] of the same compound?
Answer: 0.37

Question: What about the Efficacy [4] of the same compound?
Answer: 0.12

Question: And the Ki [5]?
Answer: 17200 nM

Question: Which results are given for `CC(=O)N1CCN(CC#CCN2CCCC2)C1=O`?
Answer: EC50 [2]: > 300000 nM; Emax [3]: 0; Efficacy [4]: 0; Ki [5]: 27400 nM

Source: ChEMBL document CHEMBL1125543, “Urea and 2-imidazolidone derivatives of the muscarinic agents oxotremorine and N-methyl-N-(1-methyl-4-pyrrolidino-2-butynyl)acetamide” (J Med Chem, 1992)
